Data on eleven molecules can be found in ChEMBL document CHEMBL1201862, “PubChem BioAssay data set” (2004).

Assay [1] addresses Neuropeptide Y receptor type 2 (Homo sapiens, UniProt P49146). The assay is classed as functional, cell-based.
A short description of assay [2]: inhibitors of intracellular T. cruzi replication, confirmation, NIH3T3 host cells, beta-gal luminescence (AID 2044).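 Further: intracellular parasites grown in NIH/3T3 mouse fibroblasts as host cells; luminescent beta-galactosidase reporter signal from transgenic T. cruzi replicating inside host cells; inhibitors lower the luminescence signal.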 The assay is classed as functional, cell-based.
Assay [3] is described as follows: cytotoxicity toward NIH3T3 fibroblasts, dose response, counter-screen, cell-based, ATP luminescence, mouse fibroblasts (AID 2010).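 Further: cells exposed to compound for about 90 hours before reading.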 The assay is classed as functional. In general terms: Counterscreens check selectivity or assay interference.
Assay [4] concerns the target Neuropeptide Y receptor type 1 (Homo sapiens, UniProt P25929). The assay is classed as functional.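 Further: HEK293 cells with a CNG channel challenged with NPY then isoproterenol; potency as antagonist that reverses NPY suppression of cAMP signal.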
Assay [5] concerns the target T1, Bcl-2-related protein A1 (Mus musculus, UniProt Q07440). Briefly: Bfl-1 inhibitors blocking BH3 peptide binding, confirmation, biochemical, TR-FRET, mouse Bfl-1 (AID 621).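 Further: TR-FRET binding of GST-Bfl-1 to FITC-labelled Bid peptide via terbium antibody.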
Assay [6] has as its target T1, Bcl-2-related protein A1. Briefly: Bfl-1 binding inhibitors, SAR follow-up, biochemical, fluorescence polarization (AID 1070). In general terms: Polarisation of emitted light reports the rotation of a fluorescent probe.
Assay [7] has as its target Glyceraldehyde-3-phosphate dehydrogenase (Homo sapiens, UniProt P04406).
The target in assay [8] is Peroxisome proliferator-activated receptor gamma/Nuclear receptor corepressor 2 (Homo sapiens, UniProt P37231+Q9Y618). Briefly: Counterscreen for NR2E3 inverse agonists: TR-FRET-based biochemical high throughput dose response assay to identify inverse agonists of the interaction between peroxisome proliferator-activated receptor gamma (PPARg) and nuclear receptor co-repressor 2 (NCOR2). The assay is classed as functional.

Assay [9] concerns the target Photoreceptor-specific nuclear receptor (Homo sapiens, UniProt Q9Y5X4). Briefly: NR2E3 inverse agonists, dose response, biochemical, TR-FRET (AID 463256). The assay is classed as functional. (In general: In TR-FRET formats the signal depends on donor and acceptor labels being close together.)
Assay [10] has as its target Melanin-concentrating hormone receptor 1 (Homo sapiens, UniProt Q99705). The assay can be described thus: Fluorescence-based counterscreen for antagonists of the G-protein coupled receptor 7 (GPR7): cell-based high throughput dose response assay to identify antagonists of the melanin-concentrating hormone receptor 1 (MCHR1). The assay is classed as functional.
Assay [11] deals with T2, Neuropeptides B/W receptor type 1 (Homo sapiens, UniProt P48145).
T2 sequence (P48145 whole entry): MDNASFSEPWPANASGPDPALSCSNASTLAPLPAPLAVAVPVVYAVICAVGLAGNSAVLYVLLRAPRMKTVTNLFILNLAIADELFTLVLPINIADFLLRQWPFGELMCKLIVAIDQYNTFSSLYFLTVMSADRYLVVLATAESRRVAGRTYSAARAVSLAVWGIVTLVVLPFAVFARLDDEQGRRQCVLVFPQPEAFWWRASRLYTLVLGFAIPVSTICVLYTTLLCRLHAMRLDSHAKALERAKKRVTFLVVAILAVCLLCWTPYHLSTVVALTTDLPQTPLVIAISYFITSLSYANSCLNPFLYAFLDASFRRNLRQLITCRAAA
Briefly: Fluorescence-based dose response cell-based high throughput screening assay to identify antagonists of the G-protein coupled receptor 7 (GPR7). [Related pubchem assays: 1952 (Screening assay (GPR7 antagonists).), 1880 (Summary AID.)]. The assay is classed as functional.

In a further assay the target is Tumor necrosis factor (Homo sapiens, UniProt P01375). Briefly: TNFa-triggered NF-kB activation inhibitors, SAR follow-up, cell-based, revised (AID 2337). The assay is classed as functional.
Chain of Tumor necrosis factor (P01375 whole entry): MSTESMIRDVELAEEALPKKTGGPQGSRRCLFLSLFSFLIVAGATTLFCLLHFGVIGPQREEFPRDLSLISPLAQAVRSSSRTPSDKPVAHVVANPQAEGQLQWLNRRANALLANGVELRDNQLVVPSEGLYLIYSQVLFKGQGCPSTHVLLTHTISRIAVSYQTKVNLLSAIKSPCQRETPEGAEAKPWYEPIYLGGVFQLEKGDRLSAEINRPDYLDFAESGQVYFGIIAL
Assay [12] in a line: cytotoxicity toward DRD oncogenic fibroblasts, dose response, cell-based, non-viral oncogenic, luminescence (AID 1934). The assay is classed as functional. Conditions: Homo sapiens.
Assay [13] deals with BJ. The assay can be described thus: cytotoxicity toward BJ-TERT fibroblasts, dose response, cell-based, RAS-independent, luminescence (AID 1933). The following applies: Homo sapiens. The assay is classed as functional.
For a further assay, the system named is Vero. Briefly: cells. Conditions: Chlorocebus sabaeus. The assay is classed as functional.
In assay [14] the target is T3, Nucleotide-binding oligomerization domain-containing protein 1 (Homo sapiens, UniProt Q9Y239).
T3 sequence (Q9Y239 whole entry): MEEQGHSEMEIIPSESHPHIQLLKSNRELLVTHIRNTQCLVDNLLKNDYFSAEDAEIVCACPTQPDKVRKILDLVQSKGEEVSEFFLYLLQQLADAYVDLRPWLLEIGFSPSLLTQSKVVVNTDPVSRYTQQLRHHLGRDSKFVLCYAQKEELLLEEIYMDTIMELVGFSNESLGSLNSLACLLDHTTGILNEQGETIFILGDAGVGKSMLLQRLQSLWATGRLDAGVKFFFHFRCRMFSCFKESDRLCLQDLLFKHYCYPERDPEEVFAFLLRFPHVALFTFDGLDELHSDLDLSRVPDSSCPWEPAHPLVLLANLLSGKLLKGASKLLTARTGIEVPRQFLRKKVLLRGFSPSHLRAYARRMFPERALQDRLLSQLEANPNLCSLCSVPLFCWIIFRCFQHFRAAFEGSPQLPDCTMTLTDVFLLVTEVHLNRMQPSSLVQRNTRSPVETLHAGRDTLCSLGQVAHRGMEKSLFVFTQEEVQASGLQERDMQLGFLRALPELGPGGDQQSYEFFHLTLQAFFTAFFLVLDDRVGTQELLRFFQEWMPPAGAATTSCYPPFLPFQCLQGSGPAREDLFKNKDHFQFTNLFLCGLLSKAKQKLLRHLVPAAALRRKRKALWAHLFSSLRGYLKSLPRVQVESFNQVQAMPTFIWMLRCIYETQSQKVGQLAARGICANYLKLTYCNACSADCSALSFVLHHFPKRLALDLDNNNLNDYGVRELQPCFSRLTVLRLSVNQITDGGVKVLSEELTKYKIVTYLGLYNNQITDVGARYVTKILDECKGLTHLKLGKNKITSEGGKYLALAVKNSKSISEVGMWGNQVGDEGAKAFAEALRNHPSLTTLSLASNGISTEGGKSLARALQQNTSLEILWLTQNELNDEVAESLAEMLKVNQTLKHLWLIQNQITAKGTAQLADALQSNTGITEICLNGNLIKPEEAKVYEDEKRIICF
The assay can be described thus: NOD1 signaling inhibitors, SAR follow-up, revised (AID 2333). The assay is classed as functional.

Assay [15] concerns BJ. Briefly: cytotoxicity toward Ras-transformed BJeLR fibroblasts, dose response, cell-based, alamar blue fluorescence, cherrypicked samples (AID 2631).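 Further: confirmatory dose-response assay in RAS-dependent BJ fibroblasts engineered with TERT, LT and ST, with cytotoxicity read by fluorescence.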 The assay is classed as functional. Conditions: Homo sapiens.
Assay [16] concerns BJ. The assay can be described thus: cells. The assay is classed as functional, cell-based. The following applies: Homo sapiens, read-out: EC50.
For assay [17], the system named is HEK293. Briefly: cells. The assay is classed as functional, cell-based. Conditions: Homo sapiens.
In assay [18] the test system is HEK293. The assay can be described thus: cells. The following applies: Homo sapiens.
For assay [19], the system named is HEK293. Briefly: NOD2 signaling inhibitors in MDP-stimulated cells, cell-based, uHTS, luminescence (AID 2001). The assay is classed as functional. Conditions: Homo sapiens.
Assay [20] in a line: Luminescent dose response cell-based high throughput screening assay for inhibitors of the Janus kinase 2 mutant JAK2V617F. [Related pubchem assays: 1446 (Primary screen.), 1521 (Confirmation assay.), 1486 (Counter screen.)]. The assay is classed as functional.
The test system of assay [21] is HEK293. The assay can be described thus: cells. The assay is classed as functional, cell-based. The following applies: Homo sapiens. This is another data set of the same source.
The subject of assay [22] is BJ. The assay can be described thus: cytotoxicity toward BJ-TERT-LT-ST fibroblasts, dose response, cell-based, RAS-independent, luminescence (AID 1935).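 Further: BJ fibroblasts immortalized with TERT plus LT and ST oncogenes.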 The assay is classed as functional. The following applies: Homo sapiens.
Assay [23] has as its system HEK293. Briefly: NOD1 signaling inhibitors, primary screen, cell-based, luminescence, uHTS (AID 1578). Conditions: Homo sapiens. The assay is classed as functional.
A further assay addresses NADPH oxidase 1 (Homo sapiens, UniProt Q9Y5S8). The assay is classed as functional, cell-based.
The nature of assay [24]: Luminescence Cell-Based Dose Confirmation HTS to Identify Inhibitors of Polyadenylation. The assay is classed as functional.
The target of a further assay is Cytochrome P450 2D6 (Homo sapiens, UniProt P10635). Briefly: qHTS Assay for Inhibitors and Substrates of Cytochrome P450 2D6. [Related pubchem assays: 410 ]. The assay is classed as ADME. Conditions: read-out: Potency.
Chain of Cytochrome P450 2D6 (P10635 whole entry): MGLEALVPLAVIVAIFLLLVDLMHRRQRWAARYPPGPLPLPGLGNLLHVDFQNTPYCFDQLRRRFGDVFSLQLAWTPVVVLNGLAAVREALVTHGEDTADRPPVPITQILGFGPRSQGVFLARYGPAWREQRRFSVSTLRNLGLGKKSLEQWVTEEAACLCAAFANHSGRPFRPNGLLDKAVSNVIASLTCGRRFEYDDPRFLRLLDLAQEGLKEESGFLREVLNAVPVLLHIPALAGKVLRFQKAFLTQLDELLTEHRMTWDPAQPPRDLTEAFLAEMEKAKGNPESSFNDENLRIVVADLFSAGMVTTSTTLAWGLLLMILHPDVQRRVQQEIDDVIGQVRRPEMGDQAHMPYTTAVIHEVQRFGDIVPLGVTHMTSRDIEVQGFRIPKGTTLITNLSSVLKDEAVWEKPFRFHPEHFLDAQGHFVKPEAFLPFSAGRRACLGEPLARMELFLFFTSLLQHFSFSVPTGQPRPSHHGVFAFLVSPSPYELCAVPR
The next assay deals with Cytochrome P450 2C19 (Homo sapiens, UniProt P33261). Briefly: qHTS Assay for Inhibitors and Substrates of Cytochrome P450 2C19. [Related pubchem assays: 410 ]. The assay is classed as ADME. The following applies: read-out: Potency.
Assay [25] addresses Calpain-2 catalytic subunit (Sus scrofa, UniProt P43367). Briefly: pig calpain II inhibitor potency, dose response, biochemical, fluorogenic peptide substrate (AID 1420). The assay is classed as functional.
For a further assay, the target named is T4, Estrogen receptor (Homo sapiens, UniProt P03372).
T4 sequence (P03372 whole entry): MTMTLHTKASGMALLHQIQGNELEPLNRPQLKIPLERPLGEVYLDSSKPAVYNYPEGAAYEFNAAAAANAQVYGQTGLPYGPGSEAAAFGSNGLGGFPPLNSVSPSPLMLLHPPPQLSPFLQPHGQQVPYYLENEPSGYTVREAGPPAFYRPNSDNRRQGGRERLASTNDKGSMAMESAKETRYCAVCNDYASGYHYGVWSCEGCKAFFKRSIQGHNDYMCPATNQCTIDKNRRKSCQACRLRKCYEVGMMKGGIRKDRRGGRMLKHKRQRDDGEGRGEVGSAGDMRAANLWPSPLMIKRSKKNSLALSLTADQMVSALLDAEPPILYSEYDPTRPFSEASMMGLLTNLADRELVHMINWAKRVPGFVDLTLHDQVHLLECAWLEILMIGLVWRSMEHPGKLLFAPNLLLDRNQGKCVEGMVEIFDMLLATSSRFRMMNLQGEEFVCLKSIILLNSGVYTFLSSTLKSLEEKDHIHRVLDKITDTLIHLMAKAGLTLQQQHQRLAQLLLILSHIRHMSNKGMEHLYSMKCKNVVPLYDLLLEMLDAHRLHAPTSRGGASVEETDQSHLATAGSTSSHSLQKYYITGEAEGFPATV

In assay [26] the target is T5, Estrogen receptor beta (Homo sapiens, UniProt Q92731). The assay can be described thus: ERβ–SRC-3 coactivator interaction inhibitors, confirmation, orthogonal assay, biochemical, ELISA, streptavidin-HRP readout (AID 1060).
T5 sequence (Q92731 whole entry): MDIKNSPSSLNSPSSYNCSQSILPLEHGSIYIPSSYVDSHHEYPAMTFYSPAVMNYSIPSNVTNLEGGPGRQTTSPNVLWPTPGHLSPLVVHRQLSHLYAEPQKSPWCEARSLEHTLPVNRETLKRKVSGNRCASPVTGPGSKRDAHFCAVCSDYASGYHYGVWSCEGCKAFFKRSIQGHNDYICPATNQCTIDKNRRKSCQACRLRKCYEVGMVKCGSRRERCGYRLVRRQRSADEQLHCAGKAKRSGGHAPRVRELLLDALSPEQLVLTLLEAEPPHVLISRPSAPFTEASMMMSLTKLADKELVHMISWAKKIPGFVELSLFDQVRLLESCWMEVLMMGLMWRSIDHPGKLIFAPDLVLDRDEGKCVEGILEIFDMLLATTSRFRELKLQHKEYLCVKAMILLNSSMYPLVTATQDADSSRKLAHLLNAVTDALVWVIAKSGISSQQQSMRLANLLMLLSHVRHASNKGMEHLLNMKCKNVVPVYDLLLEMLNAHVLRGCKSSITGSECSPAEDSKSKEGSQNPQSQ
The target in assay [27] is T5, Estrogen receptor beta.
In the next assay the target is Vasopressin V1a receptor (Homo sapiens, UniProt P37288). The assay can be described thus: Fluorescence-based cell-based high throughput dose response screening assay for agonists of the vasopressin 1 receptor (V1R). The assay is classed as functional.
Chain of Vasopressin V1a receptor (P37288 whole entry): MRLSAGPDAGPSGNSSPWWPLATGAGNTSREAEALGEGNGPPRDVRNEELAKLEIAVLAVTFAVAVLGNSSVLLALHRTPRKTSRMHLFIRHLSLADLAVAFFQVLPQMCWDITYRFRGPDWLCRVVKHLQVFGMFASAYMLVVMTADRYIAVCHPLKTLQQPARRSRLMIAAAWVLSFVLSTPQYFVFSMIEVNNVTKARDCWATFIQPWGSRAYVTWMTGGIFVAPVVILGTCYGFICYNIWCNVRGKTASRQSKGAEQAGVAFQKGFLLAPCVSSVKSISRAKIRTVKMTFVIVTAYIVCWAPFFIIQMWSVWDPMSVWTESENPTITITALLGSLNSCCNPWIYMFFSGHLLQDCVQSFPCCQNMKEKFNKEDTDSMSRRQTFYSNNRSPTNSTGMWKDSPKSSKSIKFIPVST
Another assay deals with Oxytocin receptor (Homo sapiens, UniProt P30559). Briefly: Counterscreen for vasopressin 1 receptor (V1R) agonists: Fluorescence-based cell-based high throughput dose response assay for agonists of the Oxytocin Receptor (OXTR). [Related pubchem assays: 2435 (Primary screen (OXTR agonists in singlicate)), 434964 (Confirmation screen (V1R agonists in triplicate)), 434969 (Counterscreen (OXTR agonists in …. The assay is classed as functional.
Chain of Oxytocin receptor (P30559 whole entry): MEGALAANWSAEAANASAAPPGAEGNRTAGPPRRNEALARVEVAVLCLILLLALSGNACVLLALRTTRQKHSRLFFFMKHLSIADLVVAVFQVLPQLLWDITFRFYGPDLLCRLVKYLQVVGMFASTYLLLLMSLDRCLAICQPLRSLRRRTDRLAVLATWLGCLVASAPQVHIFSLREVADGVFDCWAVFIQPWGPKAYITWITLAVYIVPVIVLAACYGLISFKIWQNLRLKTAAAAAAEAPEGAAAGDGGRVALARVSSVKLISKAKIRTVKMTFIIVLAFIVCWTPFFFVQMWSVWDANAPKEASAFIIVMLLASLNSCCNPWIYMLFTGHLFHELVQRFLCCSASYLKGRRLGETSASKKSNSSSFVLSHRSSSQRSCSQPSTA

The source made the active and inactive calls.

T1 sequence (Q07440 whole entry): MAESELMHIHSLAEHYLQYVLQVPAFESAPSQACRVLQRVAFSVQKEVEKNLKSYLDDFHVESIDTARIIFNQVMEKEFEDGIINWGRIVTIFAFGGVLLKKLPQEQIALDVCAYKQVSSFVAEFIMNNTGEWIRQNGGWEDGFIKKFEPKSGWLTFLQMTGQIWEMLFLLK
Chain of Neuropeptide Y receptor type 2 (P49146 whole entry): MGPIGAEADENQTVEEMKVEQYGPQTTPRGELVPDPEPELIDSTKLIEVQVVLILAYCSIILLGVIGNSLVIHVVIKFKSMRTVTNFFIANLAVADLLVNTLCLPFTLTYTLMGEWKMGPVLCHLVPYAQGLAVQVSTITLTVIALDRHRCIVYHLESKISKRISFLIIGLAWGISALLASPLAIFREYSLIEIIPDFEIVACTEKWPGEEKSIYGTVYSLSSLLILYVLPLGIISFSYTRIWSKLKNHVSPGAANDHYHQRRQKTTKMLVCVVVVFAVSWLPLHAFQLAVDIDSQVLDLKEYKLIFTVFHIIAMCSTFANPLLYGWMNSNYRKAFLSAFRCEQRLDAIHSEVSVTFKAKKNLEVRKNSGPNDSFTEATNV
Chain of Neuropeptide Y receptor type 1 (P25929 whole entry): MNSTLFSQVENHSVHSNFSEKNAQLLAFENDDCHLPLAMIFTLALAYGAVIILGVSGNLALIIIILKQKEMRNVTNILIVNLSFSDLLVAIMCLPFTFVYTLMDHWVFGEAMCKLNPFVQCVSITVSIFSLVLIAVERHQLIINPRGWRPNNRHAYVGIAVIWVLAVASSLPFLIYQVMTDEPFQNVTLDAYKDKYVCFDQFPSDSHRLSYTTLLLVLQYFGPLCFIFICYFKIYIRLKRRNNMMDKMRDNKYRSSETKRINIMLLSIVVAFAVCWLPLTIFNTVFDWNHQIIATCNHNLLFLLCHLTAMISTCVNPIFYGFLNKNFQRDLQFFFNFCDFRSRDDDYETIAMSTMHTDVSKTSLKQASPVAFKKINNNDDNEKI
Chain of Photoreceptor-specific nuclear receptor (Q9Y5X4 whole entry): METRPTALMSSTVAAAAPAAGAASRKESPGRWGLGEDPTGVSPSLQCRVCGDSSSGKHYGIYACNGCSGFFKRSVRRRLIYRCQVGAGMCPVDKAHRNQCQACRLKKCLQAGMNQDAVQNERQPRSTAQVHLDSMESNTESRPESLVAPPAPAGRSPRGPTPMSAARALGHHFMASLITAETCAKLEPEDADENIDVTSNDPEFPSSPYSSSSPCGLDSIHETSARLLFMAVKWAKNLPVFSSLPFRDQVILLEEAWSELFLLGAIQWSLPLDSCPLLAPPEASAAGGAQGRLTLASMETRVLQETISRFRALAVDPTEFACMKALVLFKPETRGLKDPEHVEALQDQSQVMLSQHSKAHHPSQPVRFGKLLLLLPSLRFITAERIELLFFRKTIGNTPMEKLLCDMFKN
Chain of Glyceraldehyde-3-phosphate dehydrogenase (P04406 whole entry): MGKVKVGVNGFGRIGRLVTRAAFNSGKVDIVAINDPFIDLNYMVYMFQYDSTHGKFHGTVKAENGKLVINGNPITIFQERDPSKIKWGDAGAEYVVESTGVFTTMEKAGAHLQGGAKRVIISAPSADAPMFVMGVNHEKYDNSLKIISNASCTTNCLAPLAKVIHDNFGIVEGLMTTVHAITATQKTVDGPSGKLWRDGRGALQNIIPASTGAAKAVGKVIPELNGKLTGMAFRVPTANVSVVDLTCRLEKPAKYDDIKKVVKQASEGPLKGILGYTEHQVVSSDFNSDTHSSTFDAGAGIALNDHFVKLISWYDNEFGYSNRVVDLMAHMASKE
Chain of NADPH oxidase 1 (Q9Y5S8 whole entry): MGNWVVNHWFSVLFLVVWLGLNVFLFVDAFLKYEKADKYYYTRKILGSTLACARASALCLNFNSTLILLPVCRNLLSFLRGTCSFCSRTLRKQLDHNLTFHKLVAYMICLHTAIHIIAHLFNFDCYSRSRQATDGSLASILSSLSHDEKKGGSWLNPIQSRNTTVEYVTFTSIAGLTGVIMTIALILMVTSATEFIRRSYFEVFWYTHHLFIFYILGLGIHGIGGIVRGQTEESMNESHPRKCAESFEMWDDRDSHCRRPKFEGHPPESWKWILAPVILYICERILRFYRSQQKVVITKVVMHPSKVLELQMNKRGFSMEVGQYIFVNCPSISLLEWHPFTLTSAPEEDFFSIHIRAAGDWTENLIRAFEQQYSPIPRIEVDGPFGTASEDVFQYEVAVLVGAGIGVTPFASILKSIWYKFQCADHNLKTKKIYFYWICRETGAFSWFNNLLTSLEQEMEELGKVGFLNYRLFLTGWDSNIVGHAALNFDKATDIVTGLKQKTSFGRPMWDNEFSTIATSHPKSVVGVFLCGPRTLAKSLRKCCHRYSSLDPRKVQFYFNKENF
Chain of Melanin-concentrating hormone receptor 1 (Q99705 whole entry): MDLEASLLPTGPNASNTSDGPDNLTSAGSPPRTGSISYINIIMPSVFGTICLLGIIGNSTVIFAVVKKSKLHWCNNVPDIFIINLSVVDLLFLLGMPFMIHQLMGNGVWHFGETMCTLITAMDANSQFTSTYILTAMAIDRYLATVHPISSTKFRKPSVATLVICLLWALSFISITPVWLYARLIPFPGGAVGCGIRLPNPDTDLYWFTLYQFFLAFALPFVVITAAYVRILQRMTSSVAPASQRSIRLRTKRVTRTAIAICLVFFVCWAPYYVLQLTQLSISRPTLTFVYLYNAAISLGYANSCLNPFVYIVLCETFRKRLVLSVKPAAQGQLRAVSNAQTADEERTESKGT

The term IC50 denotes the point on the concentration scale where inhibition reaches its midpoint. What is called EC50 is the concentration that produces a half-maximal response. In the case of `Cc1ccccc1N1CCN(CCCOc2ccc3c(C)cc(=O)oc3c2)CC1`, the IC50 in [1] and in assay [4] was > 35 µM (not active) throughout. Besides, the EC50 was 0.124 µM (active) in assay [2] and 9.32 µM (active) in assay [3].
With `COc1cccc(-c2cc(C(F)(F)F)nc(S(C)(=O)=O)n2)c1`, the results for the IC50 (at Bcl-2-related protein A1 [5]; at Bcl-2-related protein A1 [6]; in [7]) were 2.24 µM (active), 6.78 µM (active) and > 100 µM (not active), respectively.
As for `Cc1ccc2oc(=O)cc(CN3CCCCC3)c2c1`, the IC50 in [8] is > 39.8 µM (not active); in assay [9] it was 7.54 µM (active).
Consider `O=C(O)c1ccc(NCc2cccc(Br)c2)cc1`, for which the IC50 in assay [10] and in assay [11] was > 43.8 µM (not active) each time.
One may read the CC50 as the concentration at which the toxic effect on the cells reaches its halfway point. With `Cc1cccc(Nc2nc(N)nc(CCl)n2)c1C`, the IC50 at Tumor necrosis factor was 9.45 µM (active); in [14] it was 4.04 µM (active); with HEK293 [17], 9.12 µM (active); in the assay on HEK293 [18], > 20 µM (inactive); in the assay on HEK293 [19], 9.47 µM (active); in [20] it was 0.628 µM (active). The IC50 with HEK293 [21] was > 20 µM (inactive). Also, the EC50 in assay [12] was 0.65 µM (active); in the assay with BJ [13] it was 2.19 µM (inconclusive); in the assay with BJ [15] it was 6.44 µM (active); in the assay with BJ [16] it was 2.02 µM (active); with BJ [22], > 75 µM (inconclusive); in the assay on HEK293 [23], 10.8 µM (active). Besides, the CC50 in the assay with Vero is 2.11 µM (active).
`COc1ccc(/C=N/Nc2c(Cl)cncc2Cl)c(OC)c1OC`: the IC50 against NADPH oxidase 1 was > 17 µM (not active).
For the molecule `COc1ccccc1N1CCN(C(=O)CCNS(=O)(=O)c2ccc(Br)s2)CC1`, the EC50 in assay [24] is reported as > 120 µM (not active).
Consider `COC(=O)NC(/C(C(=O)OC)=C(\C)NCc1ccccc1)c1cccc(F)c1` (stereo not given), for which the figures for the AC50 at Cytochrome P450 2D6 and at Cytochrome P450 2C19 were 5.01 µM (inconclusive) and 7.94 µM (inconclusive), respectively.
As for `C=CCNC(=S)N/N=C/c1cccc([N+](=O)[O-])c1`, in assay [25], the IC50 was 6.63 µM (active).
As to `Cc1ccc(OCc2ccoc2C(=O)O)cc1C`, the IC50 at Estrogen receptor was 25.4 µM (active); at Estrogen receptor beta [26] it was < 0.023 µM (not active); at Estrogen receptor beta [27] it was 5.86 µM (active).
Consider `CCN(CC)c1ccc2cc(C(N)=O)/c(=N\NC(=O)c3ccncc3)oc2c1`, for which the figures for the EC50 at Vasopressin V1a receptor and on Oxytocin receptor were 18.6 µM (not active) and 21.8 µM (not active), respectively.
